Results: ChEMBL document CHEMBL4507294, “Data for DCP probe MSD-CYP11B2” (2021)
Active and inactive are the calls of the source. No cut-off for these calls is given here.

Legend:
[1] = target: D(2) dopamine receptor (Homo sapiens) (UniProt P14416); conditions: Compound concentration 10.0 uM
[2] = target: T1, 5-hydroxytryptamine receptor 2B (Homo sapiens, UniProt P41595); assay: Panlabs assay (HTR2B); set-up: compound concentration 10 uM
[3] = target: T1, 5-hydroxytryptamine receptor 2B; conditions: Compound concentration 10.0 uM
[4] = organism: Homo sapiens; assay: Glutamate, Metabotropic, mGlu5 Eurofins-Panlabs radioligand binding assay; conditions: Compound concentration 10.0 uM
[5] = target: Gamma-aminobutyric acid type B receptor subunit 1 (Homo sapiens) (UniProt Q9UBS5); conditions: Rattus norvegicus; Compound concentration 10.0 uM
[6] = target: GABA-A receptor; anion channel (Rattus norvegicus) (UniProt O09028+P15431+P18506+P18508+P19969+P20236+P23574+P23576+P28471+P28473+P30191+P62813+P63079+P63138+Q91ZM7+Q9ES14); conditions: Compound concentration 10.0 uM
[7] = target: Serine/threonine-protein kinase Nek4 (Homo sapiens) (UniProt P51957); conditions: Compound concentration 1000.0 nM
[8] = target: STE20-like serine/threonine-protein kinase (Homo sapiens) (UniProt Q9H2G2); conditions: Compound concentration 1000.0 nM
[9] = target: Histamine H1 receptor (Homo sapiens) (UniProt P35367); conditions: Compound concentration 10.0 uM
[10] = target: T2, Alpha-2B adrenergic receptor (Homo sapiens, UniProt P18089); assay: Inhibition of Adrenergic alpha2B at compound concentration of 10.0 uM in the Eurofins-Panlabs radioligand binding assay (Eurofins_assay_203710); set-up: ligand concentration 2.5 nM, non-specific ligand with concentration 10 uM Prazosin, incubation time 60 min, incubation temperature 25 C
T2 sequence (P18089 whole entry): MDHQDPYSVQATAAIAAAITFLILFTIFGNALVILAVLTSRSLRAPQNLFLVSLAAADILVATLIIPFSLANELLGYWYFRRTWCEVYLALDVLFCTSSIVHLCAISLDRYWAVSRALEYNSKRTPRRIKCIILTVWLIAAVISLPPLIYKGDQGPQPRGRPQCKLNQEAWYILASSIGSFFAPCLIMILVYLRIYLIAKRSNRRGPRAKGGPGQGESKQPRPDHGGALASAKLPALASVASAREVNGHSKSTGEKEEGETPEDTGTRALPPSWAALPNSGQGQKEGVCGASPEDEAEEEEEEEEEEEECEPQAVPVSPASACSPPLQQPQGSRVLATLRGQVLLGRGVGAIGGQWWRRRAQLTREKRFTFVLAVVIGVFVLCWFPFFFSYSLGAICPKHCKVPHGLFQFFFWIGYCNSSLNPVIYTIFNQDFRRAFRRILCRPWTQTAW

[11] = target: 3-phosphoinositide-dependent protein kinase 1 (Homo sapiens) (UniProt O15530); conditions: Compound concentration 1000.0 nM
[12] = target: Alpha-1A adrenergic receptor (Homo sapiens) (UniProt P35348); conditions: Compound concentration 10.0 uM
[13] = target: Alpha-1D adrenergic receptor (Homo sapiens) (UniProt P25100); conditions: Compound concentration 10.0 uM
[14] = target: Histamine H3 receptor (Homo sapiens) (UniProt Q9Y5N1); conditions: Compound concentration 10.0 uM
[15] = tested on: Hepatocyte growth factor receptor (Homo sapiens), P08581 [M1250T]; conditions: Compound concentration 1000.0 nM
[16] = target: Glutamate receptor 2 (Homo sapiens) (UniProt P42262); conditions: Rattus norvegicus; Compound concentration 10.0 uM
[17] = target: T2, Alpha-2B adrenergic receptor; assay: Panlabs assay (ADRA2B); set-up: compound concentration 10 uM
[18] = target: Acetylcholine receptor subunit alpha (Homo sapiens) (UniProt P02708); assay: Inhibition of Nicotinic Acetylcholine D1, Bungarotoxin at 10 µM in the Eurofins-Panlabs radioligand binding assay (Eurofins_assay_258700); conditions: Compound concentration 10.0 uM
[19] = target: T3, Beta-1 adrenergic receptor (Homo sapiens, UniProt P08588); assay: Inhibition of Adrenergic beta1 at compound concentration of 10.0 uM in the Eurofins-Panlabs radioligand binding assay (Eurofins_assay_204010); set-up: ligand concentration 0.03 nM, non-specific ligand with concentration 100 uM S(-)-Propranolol, incubation time 2 h, incubation temperature 25 C
[20] = target: Alpha-2C adrenergic receptor (Homo sapiens, UniProt P18825); assay: GPCRScan assay: inhibition of Alpha2C; set-up: radioligand conc. used [nm] 0.5 – 1.0, parental cells stable MDCK
[21] = target: T3, Beta-1 adrenergic receptor; assay: Panlabs assay (ADRB1); set-up: compound concentration 10 uM
[22] = target: Tyrosine-protein kinase Tec (Homo sapiens) (UniProt P42680); conditions: Compound concentration 1000.0 nM
[23] = target: Neuropeptide Y receptor type 1 (Homo sapiens) (UniProt P25929); assay: Inhibition of Neuropeptide Y Y1 at 10 µM in the Eurofins-Panlabs radioligand binding assay (Eurofins_assay_257010); conditions: Compound concentration 10.0 uM
[24] = target: Muscarinic acetylcholine receptor M4 (Homo sapiens) (UniProt P08173); conditions: Compound concentration 10.0 uM
[25] = target: D(1A) dopamine receptor (Homo sapiens) (UniProt P21728); conditions: Compound concentration 10.0 uM
[26] = target: T2, Alpha-2B adrenergic receptor; assay: GPCRScan assay: inhibition of Alpha2B; set-up: radioligand conc. used [nm] 1.5 – 2.0, parental cells HEKT
[27] = target: Protein kinase C delta type (Homo sapiens) (UniProt Q05655); conditions: Compound concentration 1000.0 nM
[28] = target: SNF-related serine/threonine-protein kinase (Homo sapiens) (UniProt Q9NRH2); conditions: Compound concentration 1000.0 nM
[29] = target: Peroxisome proliferator-activated receptor gamma (Homo sapiens) (UniProt P37231); assay: PPARgamma Eurofins-Panlabs radioligand binding assay; set-up: ligand concentration 5 nM, non-specific ligand with concentration 0.5 µM L-797773, incubation time 18 h, incubation temperature 15 °C; conditions: Compound concentration 10.0 uM
[30] = target: Adenosine receptor A2a (Homo sapiens) (UniProt P29274); conditions: Compound concentration 10.0 uM
[31] = target: Mu-type opioid receptor (Homo sapiens) (UniProt P35372); conditions: Compound concentration 10.0 uM
[32] = target: Cannabinoid receptor 1 (Homo sapiens) (UniProt P21554); conditions: Compound concentration 10.0 uM
[33] = target: Estrogen receptor (Homo sapiens) (UniProt P03372); conditions: Compound concentration 10.0 uM
[34] = target: Cytochrome P450 11B2, mitochondrial (Homo sapiens, UniProt P19099); assay: Assay using V79 cell lines (CYP11B2); type: cell-based
[35] = target: Cytochrome P450 11B1, mitochondrial (Homo sapiens, UniProt P15538); assay: Assay using V79 cell lines (CYP11B1); type: cell-based
[36] = target: Sodium-dependent serotonin transporter (Homo sapiens) (UniProt P31645); conditions: Compound concentration 10.0 uM

T3 sequence (P08588 whole entry): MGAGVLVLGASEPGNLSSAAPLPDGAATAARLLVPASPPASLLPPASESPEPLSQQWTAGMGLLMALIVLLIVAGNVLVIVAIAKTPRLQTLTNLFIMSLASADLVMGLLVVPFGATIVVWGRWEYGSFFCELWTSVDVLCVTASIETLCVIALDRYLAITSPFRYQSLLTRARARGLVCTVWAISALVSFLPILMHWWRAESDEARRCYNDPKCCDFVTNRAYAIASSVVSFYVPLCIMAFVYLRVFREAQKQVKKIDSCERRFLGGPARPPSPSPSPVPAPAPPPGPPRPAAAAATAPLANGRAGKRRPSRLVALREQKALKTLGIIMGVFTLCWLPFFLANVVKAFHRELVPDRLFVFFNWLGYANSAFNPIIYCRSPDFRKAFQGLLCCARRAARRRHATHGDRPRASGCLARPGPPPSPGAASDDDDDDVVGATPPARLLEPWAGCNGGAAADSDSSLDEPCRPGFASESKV
T1 sequence (P41595 whole entry): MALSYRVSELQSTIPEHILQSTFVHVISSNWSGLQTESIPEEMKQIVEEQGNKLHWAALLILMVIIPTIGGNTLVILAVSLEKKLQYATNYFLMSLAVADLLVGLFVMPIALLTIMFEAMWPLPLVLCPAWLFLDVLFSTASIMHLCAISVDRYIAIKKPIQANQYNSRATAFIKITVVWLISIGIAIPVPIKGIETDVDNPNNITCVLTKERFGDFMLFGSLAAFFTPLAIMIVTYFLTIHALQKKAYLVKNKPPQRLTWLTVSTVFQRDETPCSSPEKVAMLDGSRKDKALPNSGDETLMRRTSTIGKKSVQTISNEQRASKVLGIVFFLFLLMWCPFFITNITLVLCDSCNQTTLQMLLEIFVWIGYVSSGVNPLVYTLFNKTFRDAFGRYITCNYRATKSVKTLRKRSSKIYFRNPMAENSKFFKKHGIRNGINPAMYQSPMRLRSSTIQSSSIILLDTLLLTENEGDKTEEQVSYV
Sequence of 3-phosphoinositide-dependent protein kinase 1 (Homo sapiens) (O15530 whole entry): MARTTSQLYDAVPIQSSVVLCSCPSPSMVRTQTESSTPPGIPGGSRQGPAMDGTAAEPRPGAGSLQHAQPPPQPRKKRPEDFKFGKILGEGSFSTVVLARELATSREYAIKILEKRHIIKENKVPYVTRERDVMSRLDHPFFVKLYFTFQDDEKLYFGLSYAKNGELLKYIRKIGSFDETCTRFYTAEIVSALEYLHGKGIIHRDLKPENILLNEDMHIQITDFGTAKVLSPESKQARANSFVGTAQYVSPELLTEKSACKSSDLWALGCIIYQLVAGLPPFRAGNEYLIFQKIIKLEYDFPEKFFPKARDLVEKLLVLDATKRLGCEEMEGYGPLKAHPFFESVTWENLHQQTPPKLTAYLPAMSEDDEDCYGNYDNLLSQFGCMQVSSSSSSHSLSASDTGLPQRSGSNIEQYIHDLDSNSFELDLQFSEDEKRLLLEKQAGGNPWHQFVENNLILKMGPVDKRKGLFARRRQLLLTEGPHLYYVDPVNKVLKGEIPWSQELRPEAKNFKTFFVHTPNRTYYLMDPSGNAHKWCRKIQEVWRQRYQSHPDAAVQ
Sequence of Protein kinase C delta type (Homo sapiens) (Q05655 whole entry, looked up): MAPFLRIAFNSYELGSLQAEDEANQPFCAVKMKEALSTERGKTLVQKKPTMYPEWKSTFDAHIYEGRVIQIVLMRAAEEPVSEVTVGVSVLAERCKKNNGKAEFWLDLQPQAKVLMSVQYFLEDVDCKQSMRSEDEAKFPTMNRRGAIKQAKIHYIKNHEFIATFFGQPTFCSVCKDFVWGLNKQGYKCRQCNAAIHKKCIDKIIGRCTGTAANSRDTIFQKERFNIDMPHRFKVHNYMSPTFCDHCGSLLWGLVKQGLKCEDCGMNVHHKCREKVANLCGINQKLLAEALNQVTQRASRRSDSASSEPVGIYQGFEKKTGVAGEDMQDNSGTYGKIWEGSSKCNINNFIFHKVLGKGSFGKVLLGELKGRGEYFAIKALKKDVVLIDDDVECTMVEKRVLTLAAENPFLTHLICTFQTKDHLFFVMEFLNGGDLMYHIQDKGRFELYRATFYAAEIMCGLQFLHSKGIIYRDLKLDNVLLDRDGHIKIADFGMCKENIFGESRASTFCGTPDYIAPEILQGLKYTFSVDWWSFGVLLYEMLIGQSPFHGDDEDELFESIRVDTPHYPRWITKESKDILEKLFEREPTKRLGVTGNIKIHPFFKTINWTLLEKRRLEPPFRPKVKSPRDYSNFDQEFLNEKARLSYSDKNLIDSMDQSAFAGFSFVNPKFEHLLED
Sequence of Serine/threonine-protein kinase Nek4 (Homo sapiens) (P51957 whole entry, looked up): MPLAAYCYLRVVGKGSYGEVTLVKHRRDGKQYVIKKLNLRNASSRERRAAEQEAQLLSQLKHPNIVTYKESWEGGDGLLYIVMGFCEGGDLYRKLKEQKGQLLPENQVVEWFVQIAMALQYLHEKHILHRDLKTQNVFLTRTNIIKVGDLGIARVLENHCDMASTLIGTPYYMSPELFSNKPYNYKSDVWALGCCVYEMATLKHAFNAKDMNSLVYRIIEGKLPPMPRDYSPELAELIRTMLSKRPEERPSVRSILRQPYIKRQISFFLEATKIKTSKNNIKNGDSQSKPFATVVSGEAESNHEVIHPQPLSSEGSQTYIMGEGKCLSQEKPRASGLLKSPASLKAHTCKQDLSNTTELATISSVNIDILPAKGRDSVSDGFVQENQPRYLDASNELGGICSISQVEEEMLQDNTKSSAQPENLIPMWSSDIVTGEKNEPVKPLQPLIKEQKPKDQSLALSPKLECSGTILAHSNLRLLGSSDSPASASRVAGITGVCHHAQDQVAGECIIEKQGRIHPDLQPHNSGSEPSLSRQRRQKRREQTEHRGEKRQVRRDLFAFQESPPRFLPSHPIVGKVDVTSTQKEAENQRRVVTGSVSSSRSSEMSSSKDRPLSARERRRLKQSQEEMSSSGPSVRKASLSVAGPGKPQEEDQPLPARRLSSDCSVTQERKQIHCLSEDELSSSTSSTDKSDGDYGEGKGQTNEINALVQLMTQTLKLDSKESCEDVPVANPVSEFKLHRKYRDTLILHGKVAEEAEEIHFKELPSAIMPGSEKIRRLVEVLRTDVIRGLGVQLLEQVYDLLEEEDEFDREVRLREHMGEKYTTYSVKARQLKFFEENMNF
Sequence of Tyrosine-protein kinase Tec (Homo sapiens) (P42680 whole entry): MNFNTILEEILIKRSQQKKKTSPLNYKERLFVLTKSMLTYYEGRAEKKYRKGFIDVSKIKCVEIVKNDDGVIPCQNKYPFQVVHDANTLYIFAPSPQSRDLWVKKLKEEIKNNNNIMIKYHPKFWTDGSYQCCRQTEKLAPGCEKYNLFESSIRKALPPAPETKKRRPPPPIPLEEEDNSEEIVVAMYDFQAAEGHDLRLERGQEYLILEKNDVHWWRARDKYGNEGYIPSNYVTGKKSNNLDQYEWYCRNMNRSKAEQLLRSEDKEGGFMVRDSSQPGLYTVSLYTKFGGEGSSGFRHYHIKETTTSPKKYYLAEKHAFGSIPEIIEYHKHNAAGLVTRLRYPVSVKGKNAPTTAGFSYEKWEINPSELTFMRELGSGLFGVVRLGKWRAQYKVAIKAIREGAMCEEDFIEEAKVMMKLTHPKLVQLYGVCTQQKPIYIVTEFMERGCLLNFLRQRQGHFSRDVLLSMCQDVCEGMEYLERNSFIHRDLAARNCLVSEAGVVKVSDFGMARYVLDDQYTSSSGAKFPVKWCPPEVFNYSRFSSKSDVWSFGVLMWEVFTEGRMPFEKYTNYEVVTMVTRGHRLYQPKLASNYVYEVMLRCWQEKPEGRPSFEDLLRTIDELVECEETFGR
Sequence of SNF-related serine/threonine-protein kinase (Homo sapiens) (Q9NRH2 whole entry): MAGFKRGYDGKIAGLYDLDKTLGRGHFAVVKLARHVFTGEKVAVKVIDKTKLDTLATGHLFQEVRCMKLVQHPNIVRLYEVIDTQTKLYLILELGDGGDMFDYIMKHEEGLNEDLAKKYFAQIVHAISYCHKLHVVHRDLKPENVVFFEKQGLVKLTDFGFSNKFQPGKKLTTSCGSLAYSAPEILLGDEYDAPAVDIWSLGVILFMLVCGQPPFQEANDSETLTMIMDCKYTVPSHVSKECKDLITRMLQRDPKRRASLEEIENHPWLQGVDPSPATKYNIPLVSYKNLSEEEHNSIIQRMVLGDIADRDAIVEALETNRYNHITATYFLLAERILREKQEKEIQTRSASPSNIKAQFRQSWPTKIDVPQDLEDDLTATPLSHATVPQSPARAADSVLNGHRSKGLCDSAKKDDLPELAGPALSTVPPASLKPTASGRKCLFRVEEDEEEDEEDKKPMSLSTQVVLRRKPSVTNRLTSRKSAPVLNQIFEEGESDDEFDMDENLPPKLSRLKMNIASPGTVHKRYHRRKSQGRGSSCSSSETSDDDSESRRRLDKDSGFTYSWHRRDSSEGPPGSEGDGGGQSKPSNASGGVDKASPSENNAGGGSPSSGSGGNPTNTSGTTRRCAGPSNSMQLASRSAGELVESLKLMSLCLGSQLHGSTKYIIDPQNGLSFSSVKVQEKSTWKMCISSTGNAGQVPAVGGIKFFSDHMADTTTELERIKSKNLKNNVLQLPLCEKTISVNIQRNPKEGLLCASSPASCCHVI
Sequence of Histamine H3 receptor (Homo sapiens) (Q9Y5N1 whole entry): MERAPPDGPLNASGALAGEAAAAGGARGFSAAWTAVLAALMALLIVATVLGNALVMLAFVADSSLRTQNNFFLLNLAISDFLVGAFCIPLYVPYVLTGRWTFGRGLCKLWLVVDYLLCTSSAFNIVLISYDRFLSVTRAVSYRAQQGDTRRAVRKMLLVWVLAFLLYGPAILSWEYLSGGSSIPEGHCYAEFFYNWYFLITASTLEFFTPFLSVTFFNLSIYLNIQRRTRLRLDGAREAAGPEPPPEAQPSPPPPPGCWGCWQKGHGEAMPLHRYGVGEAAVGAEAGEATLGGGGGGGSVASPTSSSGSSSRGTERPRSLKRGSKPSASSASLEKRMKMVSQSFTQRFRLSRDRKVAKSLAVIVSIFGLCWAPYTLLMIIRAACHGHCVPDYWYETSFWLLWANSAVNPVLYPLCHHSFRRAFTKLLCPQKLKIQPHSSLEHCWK

**Q.** How did the inhibition [1] turn out when CC(C)(O)c1cncc(-c2nc3ccc(F)cc3n2C2CC2)c1 [MSD-CYP11B2] was run?
**A.** -4%

**Q.** What about the IC50 [2] of the same molecule?
**A.** 5.33 µM

**Q.** And the inhibition [3]?
**A.** 63.1%

**Q.** And the inhibition [4]?
**A.** 25%

**Q.** What about the inhibition [5] of the same molecule?
**A.** 6%

**Q.** What about the inhibition [6] of the same molecule?
**A.** 16%

**Q.** What about the residual activity [7] of the same molecule?
**A.** 100%

**Q.** And the residual activity [8]?
**A.** 100%

**Q.** And the inhibition [9]?
**A.** 23%

**Q.** And the IC50 [10]?
**A.** 4.7 µM

**Q.** And the Ki [10]?
**A.** 2.15 µM

**Q.** And the residual activity [11]?
**A.** 97%

**Q.** What about the inhibition [12] of the same molecule?
**A.** -3.03%

**Q.** And the inhibition [13]?
**A.** 2.58%

**Q.** What about the inhibition [14] of the same molecule?
**A.** -4.55%

**Q.** And the residual activity [15]?
**A.** 100%

**Q.** What about the inhibition [16] of the same molecule?
**A.** 22%

**Q.** What about the IC50 [17] of the same molecule?
**A.** 4.7 µM (active)

**Q.** And the inhibition [18]?
**A.** 0%

**Q.** What about the IC50 [19] of the same molecule?
**A.** 9.62 µM

**Q.** And the Ki [19]?
**A.** 5.55 µM

**Q.** What about the Ki [20] of the same molecule?
**A.** 0.626 µM

**Q.** What about the IC50 [21] of the same molecule?
**A.** 9.62 µM

**Q.** And the residual activity [22]?
**A.** 100%

**Q.** What about the inhibition [23] of the same molecule?
**A.** 11%

**Q.** And the inhibition [24]?
**A.** -0.57%

**Q.** And the inhibition [25]?
**A.** -1%

**Q.** What about the Ki [26] of the same molecule?
**A.** 1.44 µM

**Q.** And the residual activity [27]?
**A.** 100%

**Q.** And the residual activity [28]?
**A.** 86%

**Q.** And the inhibition [29]?
**A.** 8%

**Q.** What about the inhibition [30] of the same molecule?
**A.** -5%

**Q.** What about the inhibition [31] of the same molecule?
**A.** 7%

**Q.** What about the inhibition [32] of the same molecule?
**A.** 7%

**Q.** What about the inhibition [33] of the same molecule?
**A.** 1%

**Q.** FC(F)(F)c1ccc2c(c1)nc(-c1cccnc1)n2C1CC1 [MSD-CYP11B2-Negative-control] was tested. Which IC50 [34] did it give?
**A.** > 10 µM (not active)

**Q.** What about the inhibition [3] of the same molecule?
**A.** 79.7%

**Q.** And the IC50 [35]?
**A.** > 10 µM (not active)

**Q.** What about the residual activity [7] of the same molecule?
**A.** 100%

**Q.** What about the residual activity [8] of the same molecule?
**A.** 100%

**Q.** What about the residual activity [11] of the same molecule?
**A.** 94%

**Q.** And the residual activity [15]?
**A.** 100%

**Q.** And the residual activity [22]?
**A.** 100%

**Q.** What about the residual activity [27] of the same molecule?
**A.** 100%

**Q.** And the residual activity [28]?
**A.** 82%

**Q.** And the inhibition [36]?
**A.** -5.44%
